Bounds are passed on as bounds.

Experimental findings from patent US12017917B2, “Composition, particulate materials and methods for making particulate materials” (THE UNIVERSITY OF QUEENSLAND, priority 2015, dated 2024) are described below.

The test system of data set [1] is Escherichia coli (E. coli). Description: In vitro antibacterial activity of VAN formulations (OD 600 nm). It counts as cell-based. Particulars: VAN content 25 μg ml^−1, after 18 h. The procedure: The use of nanoparticles as a delivery vehicle for antibiotics provides a promising strategy through prolonged drug circulation half-life, increased availability of drugs interacting with membrane molecules and promoted sustained drug release. VAN is an antibiotic useful for the treatment of a number of bacterial infections since it inhibits the cell wall synthesis in susceptible bacteria. […] The in vitro antibacterial activity of VAN, MHS200-VAN and RMHS200-VAN was evaluated by monitoring the optical density (OD) at 600 nm of a bacterial suspension. E. coli (1×10^6 CFU mL^−1) was incubated in Luria-Bertani (LB) medium in a 1.5 ml centrifuge tube at various concentrations of VAN for 18 h. […] This value reduced to 20 μg ml^−1 for RMHS200-VAN which is lower than the dosage used with VAN conjugated MCM-41 (200 μg ml^−1) in in-vitro E. coli culture at 18 h. In a separate experiment, MHS200-VAN, RMHS200-VAN and free VAN with the same VAN content of 25 μg ml^−1 were incubated with 1×10^6 CFU mL^−1 E. Coli in LB media and OD was measured as a function of time.

A short description of data set [2]: UV protection of ivermectin (HPLC). To be noted: free or loaded into particles, UV irradiation 3 h. The class given is physicochemical. Here is the method: To investigate the UV protection properties of the silica particles toward ivermectin these nano-formulations as well as pure (free) ivermectin were treated under UV irradiation for 3 h. The samples before and after UV irradiation were analysed using high performance liquid chromatography (HPLC) to identify their compositions. […] This may result from the fact that ivermectin is only partially loaded into the internal cavity of the MSHS-SS particles, resulting in only partial protection.

Data set [3] has as its system E. coli. Description: In vitro antibacterial activity of lysozyme formulations (OD). It counts as cell-based. Particulars: E. coli 5×10^6 CFU mL^−1, 24 h. Here is the method: The in vitro antibacterial activity of free lysozyme and lysozyme loaded silica particles formulated using the above procedure were compared by the optical density (OD) measurement. E. coli (5×10^6 CFU mL^−1) was incubated with various concentrations of lysozyme and corresponding lysozyme loaded silica particles for 24 h. […] In contrast, the MIC of free lysozyme towards E. coli cannot be achieved even at the concentration as high as […].

The subject of data set [4] is E. coli. Description: Long-term bacterial inhibition, bacteria kinetic test under batch culture. It counts as cell-based. To be noted: lysozyme 700 μg·mL^−1, 3 days.
Data set [5] concerns cattle tick, Rhipicephalus microplus. The data set can be described thus: Larval Immersion Test on cattle tick larvae. It counts as in vivo. Particulars: Assay 3, 24 h. The procedure:
The in vitro effects of spinosad and nano-spinosad on the cattle tick, Rhipicephalus microplus were evaluated. The test was conducted at Biosecurity Sciences Laboratory (Queensland Government) using a standard Larval Immersion Test using organic solvent to extract the actives.
The test was conducted at Biosecurity Sciences Laboratory (Queensland Government) using a standard Larval Immersion Test. In the Larval Immersion Test, both spinosad and nano-Spinsad were firstly dissolved in organic solvent (2% Triton X-100 in acetone) to extract the actives for stock solution (10 mg/ml) and then be diluted in water. […] Three assays were conducted to narrow the LC ranges.

A short description of data set [6]: Release test of nano-spinosad in water (UV-Vis 248 nm). Particulars: 25° C. The class given is physicochemical. The procedure: In a release test, 2.67 mg nano-spinosad-X (containing 1 mg spinosad) was dispersed in 1 ml distilled water, respectively. The mixtures were kept at 25° C. incubator at 200 rpm. The supernatants were collected at different time and the released amount of spinosad was measured and evaluated by using a UV-Vis spectrophotometer at a wavelength of 248 nm. The release amount of pure spinosad in water was also tested using the same procedure.
The release profile of both pure spinosad and nano-spinosad were tested in water. […] On the other hand, for pure spinosad, only 2.4% of spinosad was released at 5 min while the cumulative release is less than 8% even at 540 min. […] Consequently, the release behaviour of spinosad is improved compared to the pure spinosad. The fast release of a higher concentration of spinosad is expected to be beneficial for the development of an “effective-immediately” nano-spinosad formulation.

A short description of data set [7]: UV-stability test of nano-spinosad (HPLC). The class given is physicochemical. Particulars: UV 365 nm, 2 h. The procedure:
In this test, 1.2 mg pure spinosad and 4.2 mg nano-spinosad-0.4 (containing 1.2 mg spinosad) were added in two transparent quartz containers, respectively. The using of quartz containers is to minimized the shielding of UV light from the containers. Each of the sample was placed under the UV light with a wavelength of 365 nm and power of 17.77 mV cm^−3. All samples were irradiated by the UV light for 2 hours. After the irradiation, the spinosad and its degradation products were extracted by acetonitrile (ACN) for three times and the final concentration was diluted to. 0.5 mg/ml dispersed in 1 ml distilled water. The UV degradation conditions of both pure spinosad and nano-spinosad-0.4 were tested by high-performance liquid chromatography (HPLC) using ACN as the mobile phase.
The UV stability of nano-spinosad was studied. Both spinosad and nano-spinosad were irradiated under UV light (wavelength 365 nm, 17.77 mV/cm^3) for 2 h followed by HPLC which was used to monitor the product after UV treatment utilizing ACN as the extraction media and mobile phase. […] An additional peak at retention time of 1.5 min was also observed in the pure spinosad group, which can be attributed to the degraded product. This observation is in accordance with literature reports, indicating spinosad itself is UV labile.

With `CN[C@H](CC(C)C)C(=O)N[C@H]1C(=O)N[C@@H](CC(N)=O)C(=O)N[C@H]2C(=O)N[C@H]3C(=O)N[C@H](C(=O)N[C@H](C(=O)O)c4cc(O)cc(O)c4-c4cc3ccc4O)[C@H](O)c3ccc(c(Cl)c3)Oc3cc2cc(c3O[C@@H]2O[C@H](CO)[C@@H](O)[C@H](O)[C@H]2O[C@H]2C[C@](C)(N)[C@H](O)[C@H](C)O2)Oc2ccc(cc2Cl)[C@H]1O` [free VAN, vancomycin], the “bacterial growth over time (OD)” value in data set [1] is “re-growth of bacteria”.

Regarding ivermectin [Free ivermectin], in data set [2], the “degradation of ivermectin after UV irradiation (HPLC)” value is “fully degraded”.

For lysozyme [free lysozyme], in the data set with E. coli [3], the “MIC towards E. coli” value is greater than 2 mg. Also, the “bacterial growth over time (OD)” value with E. coli [4] is “time dependent bacterial growth”.

As to spinosad, in data set [5], the “LC50 value to larval cattle ticks” value is on record as 54 ppm and the “LC99 value to larval cattle ticks” value is reported as 196 ppm. Further, the spinosad released in data set [6] (at 5 min) worked out at 2.4%. For the same compound, the “cumulative release of spinosad” value in data set [6] (at 540 min) is listed as “less than 8%”. For the same compound, the “UV degradation (HPLC degradation peak)” value in data set [7] is “UV labile”.
